In paper PMC7442133, “Reduced treatment frequencies with bumped kinase inhibitor 1369 are effective against porcine cystoisosporosis” (International Journal for Parasitology: Drugs and Drug …, 2020):

Legend:
C. suis merozoites = experiment: Merozoite replication (growth) inhibition in infected IPEC-1 cultures, free merozoites counted 9 dpi; type: cell-based, Cystoisospora suis; conditions: 400 nM once at 2 dpi; vs DMSO-only and no-treatment controls
Procedure: The laboratory strain C. suis Wien I ([Joachim and Mundt, 2011]), was maintained by passage in suckling piglets every 3–6 months and infectivity in vivo was assessed regularly at the Institute of Parasitology, University of Veterinary Medicine, Vienna. Oocysts were purified from collected feces, brought to sporulation and stored as described elsewhere ([Worliczek et al., 2013]). For in vitro studies, sporozoites were excysted ([Worliczek et al., 2013]), enumerated with a hemocytometer and used immediately for infection of semi-permanent intestinal porcine epithelial cells (IPEC-1). For in vivo studies, sporulated oocysts were washed with tap water and enumerated prior to infection of piglets.
IPEC-1 cells were maintained in culture medium at 37 °C and 5% CO2 (DHEM/HAM12 supplemented with 5% fetal calf serum and penicillin/streptomycin; Gibco via Thermo Fisher, Vienna, Austria). Cells (4 × 10^4) were used to seed 24-well plates and grown to confluence. All BKI compounds were stored as 20 mM stock solutions in 100% dimethyl sulfoxide (DMSO) at −20 °C. Cell viability in the presence of DMSO and BKIs was determined by colorimetric cell proliferation (WST-1) assays ([Shrestha et al., 2019]). In addition IPEC-1 cells were infected with serial dilutions of C. suis sporozoites, obtained after excystation to evaluate the growth curves of merozoites during 5–9 days of cultivation. To determine the effect of BKI 1369 on parasite replication, sporozoites (5 × 10^2) were added to each well one day after seeding of host cells and incubated with different concentrations of BKI 1369 at 40 °C for various time periods or a DMSO control, in triplicate.
In order to test whether BKI 1369 affects initial host cell invasion by C. suis, freshly excysted sporozoites were pre-incubated with BKI 1369 or DMSO for 6 h at 37 °C. Subsequently, sporozoites were washed with medium and used for infection of cell monolayers (5 × 10^2/well), in triplicate. Readout for both growth (merozoite replication) and invasion-inhibition experiments was microscopical evaluation by counting free merozoites 9 days post-infection (dpi) from culture supernatants. Supernatants were collected and free merozoites were counted in pooled samples at 9 dpi from quadruplicate wells in C-Chip disposable hemocytometers (NanoEnTek/Roth Lactan, Graz, Austria). All assays included DMSO and no-treatment controls in quadruplicate.
Statistical calculations for in vivo trials were performed with RStudio version 1.1.453 (RStudio Team, 2018), descriptive statistics with Microsoft Excel 2010 (Microsoft Inc., Vienna, Austria) and GraphPad Prism version 5.04 for Windows (GraphPad Software, San Diego, California USA). Differences in clinical and parasitological parameters between groups were analyzed with ANOVA in the case of normal distribution and variance homogeneity of the data, or a Kruskal-Wallis rank sum test if this was not the case. In the event of significance for the omnibus tests, parametric or non-parametric post-hoc tests for multiple comparisons were performed (according to Tukey and Conover, respectively), with P-value adjustment after Bonferroni. In vitro assays were evaluated by t-tests with significance reported at P < 0.05. For testing of efficacy in vitro, the percentage of growth/invasion inhibition was calculated as follows: % inhibition = (1−No. of merozoites counted at 9 dpi in BKI 1369 treated culture /No. of merozoites counted at 9 dpi in DMSO-only treated culture)x100

[1] = Fecal drug kinetics: BKI concentrations in pooled feces by LC-MS/MS; type: in vivo, piglets
Procedure: Additionally, to determine exposure to BKI 1369 and its metabolites, BKI 1318 and BKI 1817, pooled fecal samples per group were collected before treatment (−24 h), 2, 24 and 48 h after treatment and at the end of the study (SD 29; experiment I). Approximately 1 g of feces was soaked overnight in 3 ml phosphate buffered saline (PBS, pH 7.4). The following day, 12 ml of acetonitrile containing 100 μM propanolol as an internal standard was added and the mixture was thoroughly vortexed and centrifuged at 1000×g for 30 min. Clear supernatant was then transferred to Eppendorf tubes and concentrated in a miVac® Duo Concentrator (SP Scientific, Pennsylvania, USA) at 35 °C. Control/blank samples spiked with known amounts of target analyte were processed in tandem to provide a standard curve. The concentrated samples were shipped to the University of Washington and were stored at −20 °C until analysis by liquid chromatography-tandem mass spectrometry (LC-MS/MS) to determine fecal pharmacokinetics. All LC-MS/MS analyses were carried out on a Waters Acquity UPLC coupled with a Xevo TQS Micro and analyzed using MassLynx software (Waters Corporation, Milford, MA, USA). Extraction and LC-MS/MS conditions are described in detail in the Supplementary File S1.
Tissue and feces from vehicle control treated piglets were used as blanks or standards. Calibration curves for BKI 1369, BKI 1318, and BKI 1817 were prepared by adding 2 μL BKI in dimethylsulfoxide (DMSO) to 18 μL tissue or feces controls to generate nominal concentrations of 0.004, 0.008, 0.02, 0.04, 0.08, 0.2, 0.4, 0.8, 2, 5, 10, and 20 μM. Calibration curves were generated separately for each tissue type and feces.
5 μL of tissue homogenate curves and samples were added to tubes that contained 95 μL of 80:20 acetonitrile: water. As an internal standard, propranolol was added to each sample to a final concentration of 20 nM. Samples were dried to completion using a miVac Duo Concentrator (SP Scientific, Pennsylvania, USA) at 35 °C. Sample processing for feces was similar but utilized a slightly different process to concentrate the sample as explained in the methods. Dried Samples were sealed and shipped to the University of Washington for LC-MS/MS analysis.

**Q.** Which results are given for `CN1CCC(Cn2nc(-c3ccc4nc(O)ccc4c3)c3c(N)ncnc32)CC1` [BKI 1817]?
**A.** Decrease of total merozoite counts (C. suis merozoites): 69.6%; Concentration in pooled fecal samples ([1]; Group A (20 mg BKI 1369/kg BW; 0 dpi), SD 2, −24 h (before treatment)): 0.0 µM; Concentration in pooled fecal samples ([1]; Group A (20 mg BKI 1369/kg BW; 0 dpi), SD 3, 2 h post first-dose): 0.0 µM; Concentration in pooled fecal samples ([1]; Group A (20 mg BKI 1369/kg BW; 0 dpi), SD 4, 24 h post first-dose): 54.0 µM; Concentration in pooled fecal samples ([1]; Group A (20 mg BKI 1369/kg BW; 0 dpi), SD 5, 48 h post first-dose): 60.8 µM; Concentration in pooled fecal samples ([1]; Group A (20 mg BKI 1369/kg BW; 0 dpi), SD 29, 624 h post first-dose): 0.0 µM; Cmax ([1]; Group A: single treatment 20 mg BKI 1369/kg on SD 3, pooled feces): 60.8 µM; Fecal Tmax ([1]; Group A: single treatment 20 mg BKI 1369/kg on SD 3, pooled feces, post dose): 48 h; Concentration in pooled fecal samples ([1]; Group B (20 mg BKI 1369/kg BW; 2 dpi), SD 4, −24 h (before treatment)): 0.0 µM; Concentration in pooled fecal samples ([1]; Group B (20 mg BKI 1369/kg BW; 2 dpi), SD 5, 2 h post first-dose): 0.0 µM; Concentration in pooled fecal samples ([1]; Group B (20 mg BKI 1369/kg BW; 2 dpi), SD 6, 24 h post first-dose): 0.8 µM; Concentration in pooled fecal samples ([1]; Group B (20 mg BKI 1369/kg BW; 2 dpi), SD 7, 48 h post first-dose): 53.5 µM; Concentration in pooled fecal samples ([1]; Group B (20 mg BKI 1369/kg BW; 2 dpi), SD 29, 576 h post first-dose): 0.0 µM; Fecal Tmax ([1]; Group B: single treatment 20 mg BKI 1369/kg on SD 5, pooled feces, post-dose): 48 h; Concentration in pooled fecal samples ([1]; Group C (20 mg BKI 1369/kg BW; 2 and 4 dpi), SD 4, −24 h (before treatment)): 0.0 µM; Concentration in pooled fecal samples ([1]; Group C (20 mg BKI 1369/kg BW; 2 and 4 dpi), SD 5, 2 h post first-dose): 0.0 µM; Concentration in pooled fecal samples ([1]; Group C (20 mg BKI 1369/kg BW; 2 and 4 dpi), SD 6, 24 h post first-dose): 130.0 µM; Concentration in pooled fecal samples ([1]; Group C (20 mg BKI 1369/kg BW; 2 and 4 dpi), SD 7, 48/2 h post 2nd dose): 280.8 µM; Concentration in pooled fecal samples ([1]; Group C (20 mg BKI 1369/kg BW; 2 and 4 dpi), SD 8, 72/24 h post 2nd dose): 331.6 µM; Concentration in pooled fecal samples ([1]; Group C (20 mg BKI 1369/kg BW; 2 and 4 dpi), SD 9, 96/48 h post 2nd dose): 537.0 µM; Cmax ([1]; Group C: 20 mg BKI 1369/kg on SD 5 and SD 7, pooled feces): 537 µM; Fecal Tmax ([1]; Group C: 20 mg BKI 1369/kg on SD 5 and SD 7, pooled feces, post first-dose): 96 h; Excretion via the feces (in words) ([1]; after oral BKI 1369, piglets): major metabolite excreted in the feces
